Laboratory results reported in PubChem BioAssay AID248 (DTP/NCI, 2004).
Inconclusive results and toxic doses are left out.

Tested on: L1210 leukemia ip in BDF1 mice, survival T/C
Assay: NCI In Vivo Anticancer Drug Screen. Data for tumor model L1210 Leukemia (intraperitoneal) in B6D2F1 (BDF1) mice
Settings: endpoint: mean survival time, higher = longer survival
How it was run: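 Survival endpoint. Drug-treated group vs vehicle group, expressed as T divided by C. Tumor passaged by transplantation.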

[1] = dose: 50.0 mg/kg/injection, schedule: Q01DX009 (ip), vehicle: saline with Tween-80
[2] = dose: 100.0 mg/kg/injection, schedule: Q01DX009 (ip), vehicle: saline with Tween-80
[3] = dose: 100.0 mg/kg/injection, schedule: Q04DX002 (ip), vehicle: Klucel (hydroxypropylcellulose) (HPC)
[4] = dose: 200.0 mg/kg/injection, schedule: Q04DX002 (ip), vehicle: Klucel (hydroxypropylcellulose) (HPC)
[5] = dose: 400.0 mg/kg/injection, schedule: Q04DX002 (ip), vehicle: Klucel (hydroxypropylcellulose) (HPC)

SMILES: O=P(Oc1ccc(OP(=O)(N2CC2)N2CC2)cc1)(N1CC1)N1CC1
- T/C (dose: 9.0 mg/kg/injection, schedule: Q01DX009 (ip), vehicle: saline): 96 % of control
- T/C (dose: 9.5 mg/kg/injection, schedule: Q01DX001 (ip), vehicle: saline): 98 % of control
- T/C (dose: 13.0 mg/kg/injection, schedule: Q01DX009 (ip), vehicle: saline): 110 % of control
- T/C (dose: 19.0 mg/kg/injection, schedule: Q01DX001 (ip), vehicle: saline): 110 % of control
- T/C (dose: 20.0 mg/kg/injection, schedule: Q01DX009 (ip), vehicle: saline): 104 % of control
- T/C (dose: 22.0 mg/kg/injection, schedule: Q01DX Z (ip), vehicle: other): 103 % of control
- T/C (dose: 32.0 mg/kg/injection, schedule: Q01DX009 (ip), vehicle: saline): 100 % of control
- T/C (dose: 33.0 mg/kg/injection, schedule: Q01DX Z (ip), vehicle: other): 104 % of control
- T/C (dose: 38.0 mg/kg/injection, schedule: Q01DX001 (ip), vehicle: saline): 102 % of control
- T/C (dose: 50.0 mg/kg/injection, schedule: Q01DX Z (ip), vehicle: other): 114 % of control
- T/C (dose: 54.0 mg/kg/injection, schedule: Q01DX009 (ip), vehicle: saline): 186 % of control
- T/C (dose: 75.0 mg/kg/injection, schedule: Q01DX Z (ip), vehicle: other): 123 % of control
- T/C (dose: 90.0 mg/kg/injection, schedule: Q01DX009 (ip), vehicle: saline): 166 % of control
- T/C (dose: 150.0 mg/kg/injection, schedule: Q01DX009 (ip), vehicle: saline): 101 % of control
- T/C (dose: 300.0 mg/kg/injection, schedule: Q01DX001 (ip), vehicle: saline): 153 % of control

SMILES: COc1ccc2c(c1)/C(=C/CCN(C)C)c1ccccc1S2
- T/C (dose: 6.0 mg/kg/injection, schedule: Q01DX Z (ip), vehicle: methylcellulose (MC)): 110 % of control
- T/C (dose: 6.25 mg/kg/injection, schedule: Q01DX009 (ip), vehicle: carboxymethylcellulose (CMC)): 97 % of control
- T/C (dose: 12.0 mg/kg/injection, schedule: Q01DX Z (ip), vehicle: methylcellulose (MC)): 114 % of control
- T/C (dose: 12.5 mg/kg/injection, schedule: Q01DX001 (ip), vehicle: carboxymethylcellulose (CMC)): 100 % of control
- T/C (dose: 12.5 mg/kg/injection, schedule: Q01DX009 (ip), vehicle: carboxymethylcellulose (CMC)): 108 % of control
- T/C (dose: 12.5 mg/kg/injection, schedule: Q04DX003 (ip), vehicle: other): 105 % of control
- T/C (dose: 15.0 mg/kg/injection, schedule: Q01DX Z (ip), vehicle: methylcellulose (MC)): 104 % of control
- T/C (dose: 20.0 mg/kg/injection, schedule: Q01DX Z (ip), vehicle: methylcellulose (MC)): 119 % of control
- T/C (dose: 25.0 mg/kg/injection, schedule: Q01DX001 (ip), vehicle: carboxymethylcellulose (CMC)): 100 % of control
- T/C (dose: 25.0 mg/kg/injection, schedule: Q04DX003 (ip), vehicle: other): 101 % of control
- T/C (dose: 50.0 mg/kg/injection, schedule: Q01DX001 (ip), vehicle: carboxymethylcellulose (CMC)): 114 % of control

SMILES: COc1c2ccoc2nc2c(OC)c(OCC(O)C(C)(C)O)ccc12 (stereo not drawn)
- T/C (dose: 50.0 mg/kg/injection, schedule: Q01DX Z (ip), vehicle: carboxymethylcellulose (CMC)): 97 % of control
- T/C (dose: 100.0 mg/kg/injection, schedule: Q01DX Z (ip), vehicle: carboxymethylcellulose (CMC)): 100 % of control

SMILES: CCCCCCCCCCC(=O)CCCCCC
- T/C (dose: 100.0 mg/kg/injection, schedule: Q01DX009 (ip), vehicle: other): 98 % of control
- T/C (dose: 200.0 mg/kg/injection, schedule: Q01DX009 (ip), vehicle: other): 100 % of control
- T/C (dose: 400.0 mg/kg/injection, schedule: Q01DX009 (ip), vehicle: other): 107 % of control

SMILES: CC(=O)NC1CCCC(OC(C)=O)C1 (stereo not drawn)
- T/C [1]: 88 % of control
- T/C [2]: 91 % of control

SMILES: O=C(O)CSC(SCC(=O)O)(c1ccccc1)c1ccccc1
- T/C [3]: 88 % of control
- T/C [4]: 104 % of control
- T/C [5]: 102 % of control

SMILES: CCCCCCCCCC(C)CCCCCCC (stereo not drawn)
- T/C (dose: 100.0 mg/kg/injection, schedule: Q01DX001 (ip), vehicle: saline with Tween-80): 103 % of control
- T/C (dose: 200.0 mg/kg/injection, schedule: Q01DX001 (ip), vehicle: saline with Tween-80): 97 % of control
- T/C (dose: 400.0 mg/kg/injection, schedule: Q01DX001 (ip), vehicle: saline with Tween-80): 100 % of control

SMILES: O=[N+]([O-])c1ccc(CN=NCc2ccc(Cl)cc2Cl)c(Cl)c1
- T/C [1]: 90 % of control
- T/C [2]: 100 % of control
- T/C (dose: 200.0 mg/kg/injection, schedule: Q01DX009 (ip), vehicle: saline with Tween-80): 100 % of control
- T/C (dose: 400.0 mg/kg/injection, schedule: Q01DX009 (ip), vehicle: saline with Tween-80): 95 % of control

SMILES: O=C(O)c1cc(Br)cc(Br)c1O
- T/C (dose: 100.0 mg/kg/injection, schedule: Q01DX001 (ip), vehicle: saline): 123 % of control
- T/C (dose: 100.0 mg/kg/injection, schedule: Q04DX002 (ip), vehicle: saline with Tween-80): 91 % of control
- T/C (dose: 200.0 mg/kg/injection, schedule: Q01DX001 (ip), vehicle: saline): 105 % of control
- T/C (dose: 200.0 mg/kg/injection, schedule: Q04DX002 (ip), vehicle: saline with Tween-80): 100 % of control
- T/C (dose: 400.0 mg/kg/injection, schedule: Q01DX001 (ip), vehicle: saline): 109 % of control
- T/C (dose: 400.0 mg/kg/injection, schedule: Q04DX002 (ip), vehicle: saline with Tween-80): 88 % of control

SMILES: CN=C(N)NC
- T/C (dose: 50.0 mg/kg/injection, schedule: Q01DX009 (ip), vehicle: saline): 94 % of control
- T/C (dose: 100.0 mg/kg/injection, schedule: Q01DX009 (ip), vehicle: saline): 100 % of control
- T/C (dose: 100.0 mg/kg/injection, schedule: Q04DX003 (ip), vehicle: saline with Tween-80): 98 % of control
- T/C (dose: 200.0 mg/kg/injection, schedule: Q01DX009 (ip), vehicle: saline): 91 % of control
- T/C (dose: 200.0 mg/kg/injection, schedule: Q04DX003 (ip), vehicle: saline with Tween-80): 97 % of control

SMILES: CC(C)(C)c1cccc(C(=O)O)c1O
- T/C (dose: 100.0 mg/kg/injection, schedule: Q01DX001 (ip), vehicle: carboxymethylcellulose (CMC)): 97 % of control
- T/C (dose: 200.0 mg/kg/injection, schedule: Q01DX001 (ip), vehicle: carboxymethylcellulose (CMC)): 97 % of control
- T/C (dose: 400.0 mg/kg/injection, schedule: Q01DX001 (ip), vehicle: carboxymethylcellulose (CMC)): 90 % of control

SMILES: N#CCCC(=O)c1cccnc1
- T/C (dose: 100.0 mg/kg/injection, schedule: Q04DX002 (ip), vehicle: saline): 108 % of control
- T/C (dose: 200.0 mg/kg/injection, schedule: Q04DX002 (ip), vehicle: saline): 90 % of control
- T/C (dose: 400.0 mg/kg/injection, schedule: Q04DX002 (ip), vehicle: saline): 93 % of control

SMILES: C[C@@H]1CCC[C@@H](NC(=O)N(CCCl)N=O)C1
- T/C (dose: 6.7 mg/kg/injection, schedule: Q01DX001 (ip), vehicle: saline with Tween-80): 108 % of control
- T/C (dose: 10.0 mg/kg/injection, schedule: Q01DX001 (ip), vehicle: saline with Tween-80): 113 % of control
- T/C (dose: 15.0 mg/kg/injection, schedule: Q01DX001 (ip), vehicle: saline with Tween-80): 124 % of control
- T/C (dose: 18.7 mg/kg/injection, schedule: Q01DX009 (ip), vehicle: Klucel (hydroxypropylcellulose) (HPC)): 188 % of control
- T/C (dose: 34.0 mg/kg/injection, schedule: Q01DX001 (ip), vehicle: saline with Tween-80): 166 % of control
- T/C (dose: 37.5 mg/kg/injection, schedule: Q01DX009 (ip), vehicle: Klucel (hydroxypropylcellulose) (HPC)): 328 % of control
- T/C (dose: 50.0 mg/kg/injection, schedule: Q01DX001 (ip), vehicle: saline with Tween-80): 293 % of control
- T/C (dose: 75.0 mg/kg/injection, schedule: Q01DX001 (ip), vehicle: saline with Tween-80): 484 % of control
- T/C (dose: 75.0 mg/kg/injection, schedule: Q01DX009 (ip), vehicle: Klucel (hydroxypropylcellulose) (HPC)): 198 % of control
- T/C (dose: 112.0 mg/kg/injection, schedule: Q01DX001 (ip), vehicle: saline with Tween-80): 444 % of control
- T/C (dose: 150.0 mg/kg/injection, schedule: Q01DX009 (ip), vehicle: Klucel (hydroxypropylcellulose) (HPC)): 106 % of control
- T/C (dose: 168.0 mg/kg/injection, schedule: Q01DX001 (ip), vehicle: saline with Tween-80): 434 % of control

SMILES: CCNC(=O)c1cc2cccc(OC)c2oc1=N
- T/C (dose: 100.0 mg/kg/injection, schedule: Q04DX003 (ip), vehicle: saline): 105 % of control
- T/C (dose: 200.0 mg/kg/injection, schedule: Q04DX003 (ip), vehicle: saline): 97 % of control
- T/C (dose: 400.0 mg/kg/injection, schedule: Q04DX003 (ip), vehicle: saline): 90 % of control

SMILES: O=C(COc1ccc(Br)cc1)Nc1ccc(Cl)cc1
- T/C [3]: 95 % of control
- T/C [4]: 92 % of control
- T/C [5]: 89 % of control
